Results published in DBAASP.
Values after ≈ are worked out from the molar mass of the structure shown.

Legend:
Assay in all cases: ≥ marks a high value that may be exact or a test limit, other limits are often not marked, values filed in µg/mL are converted to µM
[1] = tested on: Bacillus megaterium KCTC 1096
[2] = tested on: Bacillus subtilis KCTC 1918
[3] = tested on: Escherichia coli KCTC 1682
[4] = tested on: Proteus vulgaris
[5] = tested on: Pseudomonas aeruginosa KCTC 1637
[6] = tested on: Staphylococcus aureus KCTC 1621
[7] = tested on: Bacillus subtilis IFO 3513
[8] = tested on: Escherichia coli IFO 12734
[9] = tested on: Staphylococcus aureus IFO 12732
[10] = tested on: Escherichia coli KF111
[11] = tested on: Escherichia coli KF130
[12] = tested on: Escherichia coli UB1005
[13] = tested on: Pseudomonas aeruginosa ATCC 27853
[14] = tested on: Pseudomonas aeruginosa H374
[15] = tested on: Pseudomonas aeruginosa H744
[16] = tested on: Pseudomonas aeruginosa K799
[17] = tested on: Salmonella enterica subsp. enterica serovar Typhimurium ATCC 14028s
[18] = tested on: Staphylococcus epidermidis
[19] = tested on: Bacillus subtilis ATCC 6633
[20] = tested on: Staphylococcus aureus FDA 209P
[21] = tested on: Acinetobacter baumannii ATCC 17978
[22] = tested on: Candida albicans NCPF 1467
[23] = tested on: Escherichia coli NCTC 10418
[24] = tested on: Escherichia coli NCTC 12923
[25] = tested on: Klebsiella pneumoniae NCTC 13368
[26] = tested on: Pseudomonas aeruginosa PAO1
[27] = tested on: Staphylococcus aureus ATCC 9144
[28] = tested on: Staphylococcus aureus NCTC 10788
[29] = tested on: Staphylococcus aureus USA 300

CC[C@H](C)[C@H](NC(=O)[C@H](CCCCN)NC(=O)[C@H](CCCCN)NC(=O)[C@H](Cc1ccccc1)NC(=O)[C@H](CC(C)C)NC(=O)[C@H](CCCCN)NC(=O)[C@@H](N)Cc1ccccc1)C(=O)N1CCC[C@H]1C(=O)N[C@@H](CCCCN)C(=O)N[C@@H](Cc1ccccc1)C(=O)N[C@@H](CC(C)C)C(=O)N[C@@H](Cc1cnc[nH]1)C(=O)N[C@@H](CC(C)C)C(=O)N[C@@H](C)C(=O)N[C@@H](CCCCN)C(=O)N[C@@H](CCCCN)C(=O)N[C@@H](Cc1ccccc1)C(N)=O [FKLFKKIPKFLHLAKKF]
MIC [1]: 0.78 µM (≈ 1.66 µg/mL) | MIC [2]: 0.78 µM (≈ 1.66 µg/mL) | MIC [3]: 6.26 µM (≈ 13.4 µg/mL) | MIC [4]: 1.56 µM (≈ 3.33 µg/mL) | MIC [5]: 1.56 µM (≈ 3.33 µg/mL) | MIC [6]: 3.12 µM (≈ 6.66 µg/mL)

CC[C@H](C)[C@H](N)C(=O)N[C@@H](CC(C)C)C(=O)N1CCC[C@H]1C(=O)N[C@@H](Cc1c[nH]c2ccccc12)C(=O)N[C@@H](CCCCN)C(=O)N[C@@H](Cc1c[nH]c2ccccc12)C(=O)N1CCC[C@H]1C(=O)N[C@@H](Cc1c[nH]c2ccccc12)C(=O)N[C@@H](CC(C)C)C(=O)N1CCC[C@H]1C(=O)N[C@@H](CCCCN)C(=O)N[C@@H](CCCN=C(N)N)C(=O)N[C@@H](CCCN=C(N)N)C(N)=O [ILPWKWPWLPKRR]
MIC [7]: 1.76 µM (≈ 3.13 µg/mL) | MIC [8]: 28.2 µM (≈ 50 µg/mL) | MIC [9]: 3.52 µM (≈ 6.25 µg/mL)

CC[C@H](C)[C@H](NC(=O)[C@@H]1CCCN1C(=O)[C@H](CCCCN)NC(=O)[C@H](CC(C)C)NC(=O)[C@H](C)NC(=O)[C@@H](NC(=O)[C@@H](NC(=O)[C@H](CC(C)C)NC(=O)[C@@H](NC(=O)[C@H](CCCCN)NC(=O)[C@H](CCCCN)NC(=O)[C@H](C)NC(=O)[C@H](C)NC(=O)[C@H](CO)NC(=O)[C@@H](NC(=O)[C@H](CC(C)C)NC(=O)[C@H](CCCCN)NC(=O)[C@H](CCCCN)NC(=O)[C@H](CC(C)C)NC(=O)[C@H](Cc1ccccc1)NC(=O)[C@H](CO)NC(=O)[C@H](CCCCN)NC(=O)[C@H](Cc1c[nH]c2ccccc12)NC(=O)[C@@H](N)CCCCN)[C@@H](C)O)C(C)C)[C@@H](C)O)[C@@H](C)O)C(=O)N[C@@H](CO)C(=O)N[C@@H](CO)C(=O)O [KWKSFLKKLTSAAKKVLTTALKPISS]
MIC [10]: 0.348 µM (≈ 1 µg/mL) | MIC [11]: 0.348 µM (≈ 1 µg/mL) | MIC [12]: 0.348 µM (≈ 1 µg/mL) | MIC [13]: 4 µM (≈ 11.5 µg/mL) | MIC [14]: 1.39 µM (≈ 4 µg/mL) | MIC [15]: 1.39 µM (≈ 4 µg/mL) | MIC [16]: 2.78 µM (≈ 8 µg/mL) | MIC [17]: 1.39 µM (≈ 4 µg/mL) | MIC [18]: 1.39 µM (≈ 4 µg/mL)

CC[C@H](C)[C@H](N)C(=O)N[C@@H](CC(C)C)C(=O)N1CCC[C@H]1C(=O)N[C@@H](Cc1c[nH]c2ccccc12)C(=O)N[C@@H](CCCCN)C(=O)N[C@@H](Cc1c[nH]c2ccccc12)C(=O)N1CCC[C@H]1C(=O)N[C@@H](Cc1c[nH]c2ccccc12)C(=O)N[C@@H](Cc1c[nH]c2ccccc12)C(=O)N1CCC[C@H]1C(=O)N[C@@H](CC(C)C)C(=O)N[C@@H](CCCN=C(N)N)C(=O)N[C@@H](CCCN=C(N)N)C(N)=O [ILPWKWPWWPLRR]
MIC [7]: 1.71 µM (≈ 3.13 µg/mL) | MIC [8]: 13.6 µM (≈ 25 µg/mL) | MIC [9]: 1.71 µM (≈ 3.13 µg/mL)

CC(C)C[C@H](NC(=O)[C@H](CCC(N)=O)NC(=O)[C@H](CCC(N)=O)NC(=O)[C@H](C)NC(=O)CNC(=O)[C@H](C)NC(=O)[C@H](CCCCN)NC(=O)CNC(=O)[C@@H](NC(=O)[C@H](CO)NC(=O)[C@H](CCCCN)NC(=O)[C@H](CC(C)C)NC(=O)[C@H](CC(C)C)NC(=O)[C@H](Cc1ccc(O)cc1)NC(=O)[C@H](CCCCN)NC(=O)[C@H](C)NC(=O)CNC(=O)[C@H](C)NC(=O)[C@H](CCCCN)NC(=O)[C@H](Cc1ccccc1)NC(=O)[C@H](CC(C)C)NC(=O)[C@H](CO)NC(=O)[C@H](CO)NC(=O)[C@H](Cc1ccccc1)NC(=O)CN)C(C)C)C(=O)N[C@@H](C)C(=O)N[C@H]1CSSC[C@@H](C(=O)N[C@@H](C)C(=O)O)NC(=O)[C@H](CC(N)=O)NC(=O)[C@H](CC(N)=O)NC(=O)[C@H](C)NC(=O)[C@H](C)NC(=O)[C@H](CCCCN)NC1=O [GFSSLFKAGAKYLLKSVGKAGAQQLACKAANNCA]
MIC [19]: 18.7 µM (≈ 64 µg/mL) | MIC [20]: 4.36 µM (≈ 14.9 µg/mL)

CC[C@H](C)[C@H](NC(=O)[C@H](CCCCN)NC(=O)[C@H](CCCCN)NC(=O)[C@H](Cc1ccccc1)NC(=O)[C@H](CC(C)C)NC(=O)[C@H](CCCCN)NC(=O)[C@H](Cc1c[nH]c2ccccc12)NC(=O)[C@@H](N)CCCCN)C(=O)N[C@@H](CO)C(=O)N[C@@H](CCCCN)C(=O)N[C@@H](Cc1ccccc1)C(=O)N[C@@H](CC(C)C)C(=O)N[C@@H](Cc1cnc[nH]1)C(=O)N[C@@H](CC(C)C)C(=O)N[C@@H](C)C(=O)N[C@@H](CCCCN)C(=O)N[C@@H](CCCCN)C(=O)N[C@@H](Cc1ccccc1)C(N)=O [KWKLFKKISKFLHLAKKF]
MIC [1]: 3.12 µM (≈ 7.16 µg/mL) | MIC [2]: 1.56 µM (≈ 3.57 µg/mL) | MIC [3]: 25 µM (≈ 57.2 µg/mL) | MIC [4]: 6.25 µM (≈ 14.3 µg/mL) | MIC [5]: 6.25 µM (≈ 14.3 µg/mL) | MIC [6]: 6.25 µM (≈ 14.3 µg/mL)

CC[C@H](C)[C@H](NC(=O)[C@H](C)NC(=O)[C@H](CCCCN)NC(=O)[C@@H]1CCCN1C(=O)[C@@H](NC(=O)[C@H](CC(C)C)NC(=O)[C@H](CO)NC(=O)[C@H](Cc1ccccc1)NC(=O)[C@H](CC(C)C)NC(=O)[C@@H](N)Cc1ccccc1)[C@@H](C)CC)C(=O)NCC(=O)NCC(=O)N[C@@H](CC(C)C)C(=O)N[C@H](C(=O)N[C@@H](CO)C(=O)N[C@@H](C)C(=O)N[C@@H](Cc1ccccc1)C(=O)N[C@@H](CCCCN)C(N)=O)[C@@H](C)CC [FLFSLIPKAIGGLISAFK]
MIC [21]: 4.16 µM (≈ 8 µg/mL) | MIC [22]: 5 µM (≈ 9.61 µg/mL) | MIC [23]: 5 µM (≈ 9.61 µg/mL) | MIC [24]: 8.32 µM (≈ 16 µg/mL) | MIC [25]: ≥ 33.3 µM | MIC [26]: > 66.6 µM | MIC [27]: 2.08 µM (≈ 4 µg/mL) | MIC [28]: 3 µM (≈ 5.76 µg/mL) | MIC [29]: 4.16 µM (≈ 8 µg/mL)

CC[C@H](C)[C@H](N)C(=O)N[C@@H](CC(C)C)C(=O)N1CCC[C@H]1C(=O)N[C@@H](Cc1c[nH]c2ccccc12)C(=O)N[C@@H](CCCCN)C(=O)N[C@@H](Cc1c[nH]c2ccccc12)C(=O)N1CCC[C@H]1C(=O)N[C@@H](CC(C)C)C(=O)N[C@@H](Cc1c[nH]c2ccccc12)C(=O)N1CCC[C@H]1C(=O)N[C@@H](Cc1c[nH]c2ccccc12)C(=O)N[C@@H](CCCN=C(N)N)C(=O)N[C@@H](CCCN=C(N)N)C(N)=O [ILPWKWPLWPWRR]
MIC [7]: 1.71 µM (≈ 3.13 µg/mL) | MIC [8]: 6.81 µM (≈ 12.5 µg/mL) | MIC [9]: 0.851 µM (≈ 1.56 µg/mL)

CC[C@H](C)[C@H](NC(=O)[C@@H]1CCCN1C(=O)[C@H](CCCCN)NC(=O)[C@H](CC(C)C)NC(=O)[C@H](C)NC(=O)[C@@H](NC(=O)[C@H](Cc1ccc(O)cc1)NC(=O)[C@H](Cc1ccccc1)NC(=O)[C@@H](NC(=O)[C@@H](NC(=O)[C@H](CCCCN)NC(=O)[C@@H](NC(=O)[C@@H]1CCCN1C(=O)[C@H](CO)NC(=O)[C@H](CCCCN)NC(=O)[C@H](Cc1ccccc1)NC(=O)[C@@H](NC(=O)[C@H](CCCCN)NC(=O)[C@H](CC(C)C)NC(=O)[C@H](Cc1ccccc1)NC(=O)[C@H](CO)NC(=O)[C@H](CCCCN)NC(=O)[C@H](Cc1c[nH]c2ccccc12)NC(=O)[C@@H](N)CCCCN)[C@@H](C)O)C(C)C)[C@@H](C)O)C(C)C)[C@@H](C)O)C(=O)N[C@@H](CO)C(=O)N[C@@H](CO)C(=O)O [KWKSFLKTFKSPVKTVFYTALKPISS]
MIC [10]: 1.32 µM (≈ 4 µg/mL) | MIC [11]: 1.32 µM (≈ 4 µg/mL) | MIC [12]: 0.659 µM (≈ 2 µg/mL) | MIC [13]: 8 µM (≈ 24.3 µg/mL) | MIC [14]: 10.6 µM (≈ 32 µg/mL) | MIC [15]: 10.6 µM (≈ 32 µg/mL) | MIC [16]: 10.6 µM (≈ 32 µg/mL) | MIC [17]: 5.28 µM (≈ 16 µg/mL) | MIC [18]: 10.6 µM (≈ 32 µg/mL)
